5 molecules from ChEMBL document CHEMBL1921727, “Stereoselective synthesis of (RP)-8-substituted-N⁶-acylated and N⁶-alkylated adenosine-3',5'-cyclic phosphorothioic acids as cAMP antagonists” (Eur J Med Chem, 2011) can be followed below.

Active and inactive are the calls of the source. The calls are words filed in the database; no cut-off is given here.

Data set [1] can be described thus: Cytotoxicity against human CD3-positive T cells assessed as [H]thymidine incorporation after 72 hrs by beta scintillation counting. The note with it: t-cell. It is filed as cell-based.
A short description of data set [2]: Antagonist activity at PKA in human CD3-positive T cells assessed as inhibition of cell proliferation after 72 hrs by [H]thymidine incorporation assay relative to (RP)-8-Br-cAMPS. Type of data set: functional. For orientation: Dividing cells build labelled thymidine or BrdU into new DNA.
The subject of data set [3] is T-cell. Description: Antagonist activity at PKA in human CD3-positive T cells assessed as inhibition of cell proliferation after 72 hrs by [H]thymidine incorporation assay. It is filed as functional, cell-based.
The subject of data set [4] is T-cell. As to the kind of experiment: Induction of PKA activation in human CD3-positive T cells assessed as increase of cell proliferation after 72 hrs by [H]thymidine incorporation assay. Type of data set: cell-based.
The test system of data set [5] is T-cell. Description: Induction of PKA activation in human CD3-positive T cells assessed as increase of cell proliferation after 72 hrs by [H]thymidine incorporation assay relative to (SP)-8-Br-cAMPS. It is filed as cell-based.

Take `CCCCNc1ncnc2c1nc(-c1ccco1)n2[C@@H]1O[C@@H]2COP(=O)(S)O[C@H]2[C@H]1O` (stereo not given in full): the Activity entry in data set [1] is “Non-toxic”. In data set [2], the Ratio is 0.53. In addition, the “Inhibition of cell proliferation (active/not active)” value (shortened to “Inhibition … (active/not active)”) in data set [3] is “Active”. The outcome in data set [4] was Active.

Regarding `CN(C)c1ncnc2c1nc(-c1ccco1)n2[C@@H]1O[C@@H]2COP(=O)([S-])O[C@H]2[C@H]1O.[Na+]` (stereo not given in full), in data set [1], the Activity result was “Non-toxic”. For the same molecule, the Ratio in data set [2] is on record as 0.1. Further, the “Inhibition … (active/not active)” value in data set [3] was “inactive”. Also, the outcome in data set [4] was Active.

Take `O=P1([S-])OC[C@H]2O[C@@H](n3c(-c4ccco4)nc4c(NCc5ccccc5)ncnc43)[C@H](O)[C@@H]2O1.[Na+]` (stereo not given in full): the Activity entry in data set [1] is “Non-toxic”. Besides, in data set [5], the Ratio stood at 0.99. For the same molecule, in data set [3], the “Inhibition … (active/not active)” value was “inactive”. Further, the outcome in data set [4] was inactive.

Regarding `CNc1ncnc2c1nc(-c1ccco1)n2[C@@H]1O[C@@H]2COP(=O)([S-])O[C@H]2[C@H]1O.[Na+]` (stereo not given in full), in data set [1], the Activity entry is listed as “Non-toxic”. Moreover, the Ratio in data set [2] stood at 0.2. The “Inhibition … (active/not active)” value in data set [3] was “Active”. The result in data set [4] was Active.

For the molecule `CCCNc1ncnc2c1nc(-c1ccco1)n2[C@@H]1O[C@@H]2COP(=O)(S)O[C@H]2[C@H]1O` (stereo not given in full), in data set [1], the Activity result was “Non-toxic”. Besides, the Ratio in data set [2] is 0.24. Moreover, in data set [3], the “Inhibition … (active/not active)” value is “Active”. Further, the outcome in data set [4] was Active.
